Data as given in US3970651A, “Crystalline cephalosporin derivative” (priority 1974, dated 1976).
Converted amounts (≈) assume the structure as drawn. “And” between values parts separate entries of the source, which are not always exact repeats. Identical values can stand only once. Like-named read-outs stand apart in the source and are kept apart here.

Legend:
[1] = for Behaviour when suspended in water: aqueous suspension
[2] = system: S. aureus 209P (A.T.C.C. 6538P); assay: Bioassay, turbidometric; type: cell-based
bacterial infections [3] = assay: In vitro antibacterial potency and spectrum; type: cell-based
bacterial infections [4] = assay: In vivo antibacterial activity
in vivo = details: dog, po, 30 mg/kg
Protocol: Three beagle dogs (mean weight of 8.2 ± 0.4 kg.) were administered 200 mesh 7-[D-α-amino-α-(p-hydroxyphenyl)acetamido]-3-(1,2,3-triazol-5-ylthiomethyl)-3-cephem-4-carboxylic acid propylene glycolate (bioassay 820 mcg./mgm.) orally at doses of 30 mg. of activity/kg. in hard gelatin capsules. All doses and concentrations reported herein are in terms of the amphoteric material and were corrected for differences in biopotency.

[5] = Heat stability / loss of bioactivity of the solid on storage at elevated temperatures
Water solubility = type: physicochemical; details: in water at 23° C.
[6] = allowance made for inert propylene glycol

N[C@@H](C(=O)NC1C(=O)N2C(C(=O)O)=C(CSc3c[nH]nn3)CSC12)c1ccc(O)cc1 (stereo partly drawn) [ethanolate]
Behaviour when suspended in water [1]: gradually lost its ethanol to change into a solid tacky form which lost crystallinity, did not suspend evenly and gummed in time

CO.N[C@@H](C(=O)NC1C(=O)N2C(C(=O)O)=C(CSc3cnn[nH]3)CS[C@H]12)c1ccc(O)cc1 (stereo partly drawn) [BL-S640 methanolate, 7-[D-α-amino-α-(p-hydroxyphenyl)acetamido]-3-(1,2,3-triazol-5-ylthiomethyl)-3-cephem-4-carboxylic acid Methanolate]
Bio-assay [2]: 850 to 900 µg/mg

C=CC.N[C@@H](C(=O)NC1C(=O)N2C(C(=O)O)=C(CSc3cnn[nH]3)CS[C@H]12)c1ccc(O)cc1.O=C(O)CO (stereo partly drawn) [BL-S640 mono-propylene glycolate, 7-[D-α-amino-α-(p-hydroxyphenyl)acetamido]-3-(1,2,3-triazol-5-ylthiomethyl)-3-cephem-4-carboxylic acid mono-propylene glycolate]
Behaviour when suspended in water [1]: does not lose biological activity or crystallinity and does not oil, suspend unevenly, clump, settle out or become tacky
Potency and spectrum in vivo and in vitro versus the zwitterion product (bacterial infections [3]; [6]): substantially the same potency and spectrum in vivo and in vitro
Bio-assay [2]: 865 µg/mg
calculated potency ([2]; 15.6% 1,2-propylene glycol, 0.3% water): 865 µg/mg
Potency and spectrum in vivo versus the zwitterion product (bacterial infections [4]; [6]): substantially the same potency and spectrum in vivo and in vitro

N[C@@H](C(=O)NC1C(=O)N2C(C(=O)O)=C(CSc3c[nH]nn3)CSC12)c1ccc(O)cc1 (stereo partly drawn) [BL-S640 propylene glycolate, 7-[D-α-amino-α-(p-hydroxyphenyl)acetamido]-3-(1,2,3-triazol-5-ylthiomethyl)-3-cephem-4-carboxylic acid 1,2-propylene glycolate]
Behaviour when suspended in water ([1]; listed as propylene glycolate): does not lose biological activity, lose crystallinity, suspend unevenly, oil, clump, settle out or become tacky
concentration at 0.08 h (in vivo): 0.04 µg/mL
concentration at 0.25 h (in vivo): 0.3 ± 0.1 µg/mL
concentration at 0.5 h (in vivo): 5.9 ± 2 µg/mL
concentration at 1.05 h (in vivo): 8.4 µg/mL
concentration at 1.5 h (in vivo): 17.7 ± 2 µg/mL
concentration at 2 h (in vivo): 18.7 ± 0.9 µg/mL
concentration at 3 h (in vivo): 13.7 ± 1.2 µg/mL
concentration at 4 h (in vivo): 8.4 ± 1.3 µg/mL
concentration at 6 h (in vivo): 3.2 ± 0.4 µg/mL
concentration at 8 h (in vivo): 1.6 ± 0.2 µg/mL
half-life (in vivo): ~1.36 h
In vitro potency and spectrum of activity (bacterial infections [3]; in vitro, versus Ser. No. 318,340): exhibits the potency and spectrum of activity reported in the above-referenced application Ser. No. 318,340 in a qualitative sense and usually also quantitatively except when it is possible to observe slightly less activity due to its content of the biologically inert propylene glycol
Loss of bioactivity on storage as a solid ([5]; 56°C., one month, usual stringent test conditions): no more than ten
degraded at 24 h ([5]; solid): < 6%
degraded at 48 h ([5]; solid): < 12%
degraded at 720 h ([5]; solid): < 10%
bioassay ([2]; 200 mesh lot dosed to dogs): 820 mcg./mgm.
assigned potency ([2]; bioassay standard, 16.7% 1,2-propylene glycol, 0.3% water): 820 mcg./mgm.
potency of composite blend ([2]; capsule blend): 834 µg/mg
Bio-assay ([2]; listed as 1,2-propylene glycolate): 800 to 850 µg/mg
Bio-assay ([2]; listed as propylene glycolate): 750 to 790 µg/mg and 800 to 860 µg/mg
In vivo results (bacterial infections [4]; dosed on a potency basis in terms of the zwitterion): substantially the same
solubility (Water solubility): ~10 mg/mL (≈ 21.6 mM)

N[C@@H](C(=O)NC1C(=O)N2C(C(=O)O)=C(CSc3cnn[nH]3)CS[C@H]12)c1ccc(O)cc1 (stereo partly drawn) [BL-S640, 7-[D-α-amino-α-(p-hydroxyphenyl)acetamido]-3-(1,2,3-triazol-5-ylthiomethyl)-3-cephem-4-carboxylic acid]
Degradation in water at alkaline pH ([1]; pH 7): degrades very rapidly, as by loss of the thiol moiety

N[C@@H](C(=O)NC1C(=O)N2C(C(=O)O)=C(CSc3c[nH]nn3)CSC12)c1ccc(O)cc1 (stereo partly drawn) [BL-S640 mono-methanolate]
Bio-assay [2]: 930-960 units/mg.
